{
  "source": "patent US20240009151A1",
  "about": "“FORMULATIONS OF AZOBENZENE PHOTOREACTIVE COMPOUNDS” (BAYON THERAPEUTICS, INC., priority 2020, published 2024)",
  "key": {"RGCs of rd1 retina": {"system": "RGCs of rd1 retina", "test": "single in vivo injection, time course of photosensitization of RGCs (spike rasters, LRI)", "parameters": "species or system mouse", "settings": "100 μM Compound 1 and 1200 μM SBE-CD, observed up to 28 days post-injection", "description": "FIG. 3e is a scatter plot correlating the strength of light responses in RGCs and the abundance of Compound 1 in retinal tissue."}, "[1]": {"system": "retinal ganglion cells (RGCs) from rd1 retina", "test": "multielectrode array (MEA) electrophysiology of isolated rd1 retinas, light response index (LRI)", "assay_type": "cell-based, mouse", "protocol": "Isolated rd1 retinas were treated with formulations of 100 μM Compound 1 and increasing concentrations of SBE-CD, from 300 μM to 34000 μM. Light responsivity was measured using multielectrode array (MEA) electrophysiology. […] To quantify the degree of light-responsivity for each recorded cell, the normalized relative difference in observed spike frequencies with and without light stimulus was defined as the light response index (LRI): […]"}, "[2]": {"system": "RGCs of rd1-GCaMP6f retina", "test": "2-photon live calcium imaging of isolated rd1-GCaMP6f retina, fraction of light-responsive cells", "assay_type": "cell-based, mouse", "settings": "100 μM Compound 1; lower stoichiometry of SBE-CD (300 μM vs 1200 μM), synaptic blockers", "protocol": "To better understand how Compound 1 was photosensitizing RGCs, an rd1 mouse line was generated expressing the genetically encoded calcium indicator GCalVIP6f under control of Synapsin-1 to label all neurons for 2-photon live imaging. Isolated retina from these mice were then treated with 100 uM Compound 1 and either 300 uM or 1200 uM SBE-CD and imaged in the presence of synaptic blockers. The latter concentration was chosen to increase the amount of available cyclodextrin around to potentiate the photosensitization while not completely quenching it. Due to the spectral overlap of Compound 1 absorbance with GCaMP6fref, an interline stimulus module was developed for the 2-photon microscope. […]\nTo determine which neurons were responding to light, collected movies were cross correlated to the stimulus periods using an autocorrelation estimation. […] These resulting correlated micrographs were then used to quantify the number of light-responsive cells. […]\nThe total number of cells were counted from a max Z-projection the same movies and used to determine the relative fraction of light-responsive cells per Compound 1 formulation. […] The activity was also rastered using the recorded ΔF/F of all neurons (FIG. 2e)."}},
  "data": [
    {"smiles": "CCN(Cc1ccccc1)c1ccc(/N=N/c2ccc(NC(=O)C[N+](CC)(CC)CC)cc2)cc1", "note": "[Compound 1]", "values": [
      {"measurement": "duration of photosensitization of RGCs", "setting": "RGCs of rd1 retina", "result": "prolongs photosensitization"},
      {"measurement": "dependence of LRI on the amount of SBE-CD used", "setting": "[1]; 100 μM Compound 1, SBE-CD from 300 μM to 34000 μM", "result": "dose-response"},
      {"measurement": "light response of RGCs (MEA)", "setting": "[1]; 100 μM Compound 1 with 300 μM SBE-CD (minimal amount)", "result": "strongest light-responses"},
      {"measurement": "light response of RGCs (MEA)", "setting": "[1]; 100 μM Compound 1 with 34000 μM SBE-CD (excess)", "result": "nearly eliminated any light response"},
      {"measurement": "photosensitization of the cells (LRI histograms)", "setting": "[1]; excess of SBE-CD, compared to untreated rd1 tissue", "result": "very weakly"},
      {"measurement": "number of light-responding RGCs (LRI histograms)", "setting": "[1]; minimal amount of SBE-CD", "result": "greatly increased"},
      {"measurement": "number of RGCs that were light responsive (fraction of light-responding cells)", "setting": "[2]", "result": "greater number of RGCs that were light responsive"}
    ]}
  ]
}
